Consider nine compounds from patent EP0490410B1, “TXA2 Receptor and gene encoding the same” (SHIONOGI SEIYAKU KABUSHIKI KAISHA, priority 1990, dated 1992).

Test [1] concerns human TXA2 receptor encoded by HPL (SEQ ID NO: 1), expressed in Xenopus oocytes. In words: Electrophysiological response (two-micropipette voltage clamp) of Xenopus oocytes injected with in vitro transcribed mRNA of HPL. Type of test: cell-based. The following applies: for response evoked (inward current): ligand added to the bath at 1 µM, oocytes 48 hours after mRNA injection. As for the experimental part: The TXA2 receptor stimulation results in PI turnover and Ca^2+ mobilization. The present inventors, therefore, expressed the clone in Xenopus oocyte where agonist stimulation linked to PI turnover opens endogenous Ca^2+-dependent Cl^- channel. […] The mRNA synthesized in vitro from the 2.0 kb BamHI subclone of HPL was injected into Xenopus oocytes and electrophysiological responses were measured after 48 hours. A TXA2 agonist, STA2, and other PGs dissolved in ethanol at 100 µM were added to the bath at 1 µM concentration, and responses of oocytes were recorded by the two-micropipette voltage clamp method as described in Masu, Y. et al., Nature 329, 836-838 (1987).

The target in test [2] is T1, human TXA2 receptor encoded by placenta cDNA clone HPL (SEQ ID NO: 1), expressed in COS-7 cells (Homo sapiens, UniProt P21731).
T1 construct: expressed in transfected cells; host or cells: COS-7 cells (CDM8 vector), membranes
T1 sequence (P21731 1-343): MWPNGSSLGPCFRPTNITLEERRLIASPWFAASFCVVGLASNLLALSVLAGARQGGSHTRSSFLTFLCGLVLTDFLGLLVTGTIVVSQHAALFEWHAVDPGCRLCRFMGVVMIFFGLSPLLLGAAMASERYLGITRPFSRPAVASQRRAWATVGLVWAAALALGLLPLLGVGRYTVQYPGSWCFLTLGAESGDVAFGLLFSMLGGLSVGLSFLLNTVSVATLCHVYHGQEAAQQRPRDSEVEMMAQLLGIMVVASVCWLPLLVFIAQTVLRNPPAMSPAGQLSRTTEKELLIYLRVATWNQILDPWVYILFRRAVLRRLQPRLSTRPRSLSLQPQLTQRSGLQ
As to the kind of experiment: Competition for [3H]S-145 binding to membranes of transfected COS-7 cells. The settings on record: 1.25 nM [^3H]S-145 and various concentrations of ligands. As for the experimental part:
To establish that HPL encodes the TXA2 receptor, the present inventors subcloned a 2.0 kb fragment of HPL into an eukaryotic expression vector, CDM8 (Seed, B., Nature 329, 840-842 (1987)), and transfected the plasmid into COS-7 cells. […] Specificity of this binding was analysed with several TXA2 analogues as well as various prostanoids.
HPL was digested with BamHI to remove most of the 5'-untranslated region, and its 2.0 kb fragment was inserted between the HindIII-XbaI site of eukaryotic expression vector CDM8 (Seed, B., Nature […], 840-842 (1987)). A modified DEAE-dextran method (Ausbel, F. M. et al, Current Protocols in Molecular Biology. 9.2.5 (Wiley, New York, 1989)) was used for the transfection of COS-7 cells. At 60 h after the transfection, cells were collected and membranes were prepared by homogenizing the cells according to the method of Ausbel, F. M. et al., as described above in the presence of 1 mM benzamidine and 0.3 mM PMSF.

Take `CCCCC[C@H](O)/C=C/[C@H]1[C@H](O)CC(=O)[C@@H]1C/C=C\CCCC(=O)O` [E2]: the “response evoked (inward current)” value in test [1] is reported as “did not evoke response”.

In the case of `CCCCCC(O)C=CC1C(O)CC2OC(=CCCCC(=O)O)CC21` (stereo not drawn) [I2], the “response evoked (inward current)” value in test [1] is reported as “did not evoke response”. Regarding `CC1(C)[C@H]2C[C@H](NC(=O)[C@H](O)C3CCCC3)[C@@H](C/C=C\CCCC(=O)O)[C@@H]1C2` [ONO-3708], the “competition for the [^3H]S-145 binding” value in test [2] is “competed for the [^3H]S-145 binding”. For `CCCCC[C@H](O)/C=C/[C@H]1[C@H](O)CC(=O)[C@@H]1CCCCCCC(=O)O` [PGE1], the “response evoked (inward current)” value in test [1] was “did not evoke response”. On the same count and under the same terms, the result for `CCCCC[C@H](O)/C=C/[C@@H]1[C@@H](C/C=C\CCCC(=O)O)[C@@H](O)C[C@H]1O` [PGF2 α] reads “did not evoke response”. As for `O=C(O)CCCC=CCC1C2CCC(C2)C1NS(=O)(=O)c1ccccc1` (stereo not drawn) [S-145], the “competition for the [^3H]S-145 binding” value in test [2] was “competed for the [^3H]S-145 binding”. As to `CCCCCC(O)C=CC1CC2CC(S2)C1CC=CCCCC(=O)O` (stereo not drawn) [STA2], the “response evoked (inward current)” value in test [1] is “evoked a fast inward current of a few hundred nA followed by a slow phase of current of low amplitude”. Moreover, in test [1] (oocytes injected with mRNA of HPL), the “concentration as low as which the response was seen” value is on record as 1 nM. Besides, the “competition for the [^3H]S-145 binding” value in test [2] is “competed for the [^3H]S-145 binding”.

Regarding `CCCCC[C@H](O)/C=C/[C@H]1OC(O)C[C@H](O)[C@@H]1C/C=C\CCCC(=O)O` (stereo partly drawn) [TXB2], the “response evoked (inward current)” value in test [1] was “did not evoke response”. In addition, the “competition for the [^3H]S-145 binding” value in test [2] is recorded as “at least two orders of magnitude less active in the competition”.

In the case of PGD2, in test [1], the “response evoked (inward current)” value is given as “did not evoke response”.
